Source: patent US9732298B2, “Process for the treatment of liquefied hydrocarbon gas using 3-(amino) propane-1,2-diol compounds” (Dow Global Technologies LLC, priority 2012, dated 2017)

Experiments:
[1] = pKa by automated Mettler Toledo titration; type: physicochemical; conditions: aqueous amine solution; 50 weight % aqueous amine solutions titrated with 0.5 N hydrochloric acid
[2] = Solubility of tested amine in heptane phase by gas chromatography (toluene internal standard); conditions: GC peak area of tested amine in neat heptane phase; heptane 10 g, toluene 0.1 g, amine 2.5 g, mixed at 20° C. for 1 hour, decanted 15 minutes; average of three injections
Protocol: A solution of heptane (10 g), toluene (0.1 g) and the tested amine (2.5 g) are mixed at 20° C. for 1 hours. The mixture is decanted for 15 minutes and the neat heptane phase is analyzed by gas chromatography using toluene as internal standard. The injection is repeated three times and peak areas of tested amine are averaged.

| Structure (SMILES) | pKa [1] | area counts [2] [counts] |
| --- | --- | --- |
| NCC(O)CO (stereo not drawn) [APD] | 9.3 | 0 |
| CN(CCO)CC(O)CO (stereo not drawn) [HEMAPD] | 8.5 | 290 |
| CNCC(O)CO (stereo not drawn) [MAPD] | 9.7 | 176 |
